{"source": "patent US20260018245A1", "about": "“SYSTEMS AND METHODS FOR IDENTIFYING AND TARGETING COLLATERAL LETHAL GENES” (The Regents of the University of Michigan, priority 2022, published 2026)", "key": {"[1]": {"system": "SKOV3 cells", "assay": "Two-drug synergy of rotenone and MTHFD2 inhibitor on viability (SynergyFinder)", "format": "cell-based", "conditions": "MTHFD2 inhibitor combined with complex I inhibitor rotenone", "source_text": "FIG. 11 Investigating alternative metabolic pathways to rescue UQCR11-null cells from collateral lethal targeting of MTHFD2. (a) Correlation between NDUFS7 mRNA expression and copy-number alterations of the 19p13.3 locus, represented by UQCR11 copy-number in TCGA OVCA dataset (n=303). Correlations estimated using Spearman's rank correlation test. (b) Gene expression of NDUFS7 measured via qRT-PCR in UQCR11-null lines (OVCAR8, CAOV3, HeyA8) relative to NDUFS7 expression in UQCR11-intact line (SKOV3). Data representative of two independent experiments presented as mean±s.d. (n=5), analyzed using ordinary one-way ANOVA with Dunnett's correction for multiple comparisons. (c) Doseresponse curve for single-agent inhibition in SKOV3 cells by either Complex I inhibitor, rotenone, or MTHFD2 inhibitor. […] Data are representative of two independent experiments and presented as mean±s.e.m (n=3) and analyzed using two-tailed Welch's t-test. […] Viability decrease was measured 72 h after inhibitor treatment relative to vehicle control. […] (n=6) and analyzed using ordinary 2-way ANOVA with Sidak's correction for multiple comparisons. […] (n=4) and analyzed using two-tailed Welch's t-test. […] Viability decrease was measured 72 h after inhibitor treatment relative to vehicle control. […] (n=5) and analyzed using two-tailed Welch's t-test."}, "[2]": {"system": "parental ovarian cancer lines and isogenic SKOV3 lines", "assay": "Viability with MTHFD2 inhibitor and uridine supplementation", "format": "cell-based", "conditions": "UQCR11-null parental and SKOV3 shUQCR11 cells compared with UQCR11-intact cells", "method": "FIG. 15 Investigating metabolic consequence of Complex III impairment and activity of paralogous pathways other than oxidative MTHFD2. (a) Effect of MTHFD2 inhibitor ([…]) and uridine (50 μM) supplementation on viability of parental ovarian cancer lines that are UQCR11—intact (SKOV3) or UQCR11-null (HeyA8, OVCAR8, CAOV3). Data are representative of two independent experiments and presented as mean±s.d. (n=6). Data analyzed with one-way ANOVA with Tukey's correction for multiple comparisons. (b) Effect of MTHFD2 inhibitor and uridine supplementation on viability of isogenic SKOV3 lines expressing shScramble or shUQCR11. […] Data analyzed with one-way ANOVA with Tukey's correction for multiple comparisons. […] (n=6) and analyzed using two-tailed Student's t-test. (d) mRNA expression of NNT, IDH2, IDH3A measured via qRT-PCR after knocking down with shNNT, shIDH2, and shIDH3A, relative to scramble shRNA (shScr), verifying knockdown efficiency in SKOV3 and OVCAR8 cell-lines. […] Data analyzed using unpaired two-tailed Student's t-test. […] Data are analyzed using ordinary one-way ANOVA with multiple comparisons. […] Loss of viability calculated by comparing respective viability in vehicle control-treated cells to MTHFD2 inhibitor-treated cells. […] (n=6) and analyzed using ordinary one-way ANOVA with Dunnett's correction for multiple comparisons. Error bars are calculated using propagation of error principles."}}, "data": [{"smiles": "Cc1c(N2CCN(C)[C@@H](C)C2)ccc2c3c(c(=O)oc12)CN(C(=O)c1ccc(NS(C)(=O)=O)c(OC(F)(F)F)c1)CC3", "note": "[DS18561882]", "values": [{"measurement": "effect of co-inhibition on viability", "setting": "[1]", "value": "synergistic effect"}, {"measurement": "proliferation", "setting": "[2]", "value": "suppressed proliferation"}]}]}
